Where “and” joins values, the source holds several entries; their conditions need not be identical. Equal values may be shown once. Toxic doses and inconclusive results are not listed. Rule as the data show it: active = T/C of 150% or more; inactive = T/C below 125%.
Test system: L1210 leukemia ip in BDF1 mice, survival T/C
Experiment: NCI In Vivo Anticancer Drug Screen. Data for tumor model L1210 Leukemia (intraperitoneal) in B6D2F1 (BDF1) mice
Conditions: endpoint: mean survival time, higher = longer survival
How it was run: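 Ratio derived from survival: compound-dosed mice over vehicle-dosed mice, all bearing a transplantable tumor.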

[1] = dose: 100.0 mg/kg/injection, schedule: Q01DX009 (ip), vehicle: Klucel (hydroxypropylcellulose) (HPC)
[2] = dose: 200.0 mg/kg/injection, schedule: Q01DX009 (ip), vehicle: Klucel (hydroxypropylcellulose) (HPC)
[3] = dose: 400.0 mg/kg/injection, schedule: Q01DX009 (ip), vehicle: Klucel (hydroxypropylcellulose) (HPC)
[4] = dose: 100.0 mg/kg/injection, schedule: Q01DX009 (ip), vehicle: saline with Tween-80
[5] = dose: 100.0 mg/kg/injection, schedule: Q01DX001 (ip), vehicle: saline
[6] = dose: 200.0 mg/kg/injection, schedule: Q01DX001 (ip), vehicle: saline
[7] = dose: 400.0 mg/kg/injection, schedule: Q01DX001 (ip), vehicle: saline
[8] = dose: 100.0 mg/kg/injection, schedule: Q04DX003 (ip), vehicle: saline
[9] = dose: 200.0 mg/kg/injection, schedule: Q04DX003 (ip), vehicle: saline
[10] = dose: 50.0 mg/kg/injection, schedule: Q01DX009 (ip), vehicle: saline with Tween-80
[11] = dose: 100.0 mg/kg/injection, schedule: Q01DX001 (ip), vehicle: carboxymethylcellulose (CMC)

Measured: T/C

O=C(c1ccccc1)c1ccc(NC(=S)Nc2ccc(C(=O)c3ccccc3)cc2)cc1
inactive: dose: 20.0 mg/kg/injection, schedule: Q01DX005 (ip), vehicle: saline with Tween-80 97 % of control | dose: 40.0 mg/kg/injection, schedule: Q01DX005 (ip), vehicle: saline with Tween-80 92 % of control | dose: 80.0 mg/kg/injection, schedule: Q01DX005 (ip), vehicle: saline with Tween-80 92 % of control | dose: 160.0 mg/kg/injection, schedule: Q01DX005 (ip), vehicle: saline with Tween-80 95 % of control | dose: 320.0 mg/kg/injection, schedule: Q01DX005 (ip), vehicle: saline with Tween-80 97 % of control

O=C1c2c(O)ccc([N+](=O)[O-])c2C(=O)c2c([N+](=O)[O-])ccc(O)c21
inactive: [1] 93 % of control | dose: 100.0 mg/kg/injection, schedule: Q04DX003 (ip), vehicle: Klucel (hydroxypropylcellulose) (HPC) 106 % of control | [2] 105 % of control | dose: 200.0 mg/kg/injection, schedule: Q04DX003 (ip), vehicle: Klucel (hydroxypropylcellulose) (HPC) 95 % of control | [3] 103 % of control | dose: 400.0 mg/kg/injection, schedule: Q04DX003 (ip), vehicle: Klucel (hydroxypropylcellulose) (HPC) 95 % of control

Cc1nc(C#N)c(N)o1
inactive: dose: 5.0 mg/kg/injection, schedule: Q01DX001 (ip), vehicle: saline 103 % of control | dose: 10.0 mg/kg/injection, schedule: Q01DX001 (ip), vehicle: saline 103 % of control | dose: 20.0 mg/kg/injection, schedule: Q01DX001 (ip), vehicle: saline 98 % of control

O=C1c2cccc3c(Br)ccc(c23)C(=O)N1C1CCCCCCCCCCC1
inactive: [4] 97 % of control | dose: 200.0 mg/kg/injection, schedule: Q01DX009 (ip), vehicle: saline with Tween-80 90 % of control

CCOC(=O)Nc1cccc(Cl)c1Cl
inactive: dose: 100.0 mg/kg/injection, schedule: Q04DX003 (ip), vehicle: saline with Tween-80 101 % of control | dose: 200.0 mg/kg/injection, schedule: Q04DX003 (ip), vehicle: saline with Tween-80 98 % of control | dose: 400.0 mg/kg/injection, schedule: Q04DX003 (ip), vehicle: saline with Tween-80 93 % of control

CCCc1nc2c(c(=O)n(C)c(=O)n2C)n1C
inactive: dose: 45.0 mg/kg/injection, schedule: Q01DX001 (ip), vehicle: saline 97 % of control and 98 % of control | dose: 67.0 mg/kg/injection, schedule: Q01DX001 (ip), vehicle: saline 97 % of control and 103 % of control | [5] 94 % of control and 101 % of control | dose: 150.0 mg/kg/injection, schedule: Q01DX001 (ip), vehicle: saline 98 % of control and 101 % of control

O=C(CCCC(=O)NNC(=S)Nc1ccc2ccccc2c1)NNC(=S)Nc1ccc2ccccc2c1
inactive: dose: 50.0 mg/kg/injection, schedule: Q01DX001 (ip), vehicle: saline 98 % of control | [5] 93 % of control | [6] 93 % of control | [7] 90 % of control

COc1ccc(Cl)cc1NC(=O)OC/C=C/c1ccccc1
inactive: dose: 100.0 mg/kg/injection, schedule: Q01DX009 (ip), vehicle: gum acacia 96 % of control | dose: 200.0 mg/kg/injection, schedule: Q01DX009 (ip), vehicle: gum acacia 96 % of control | dose: 400.0 mg/kg/injection, schedule: Q01DX009 (ip), vehicle: gum acacia 87 % of control

CC(C)=NNc1cccc2cccc(N)c12
inactive: [5] 97 % of control | [6] 95 % of control | [7] 97 % of control

Nc1ccn(CCCOc2ccccc2)c(=O)n1
inactive: dose: 100.0 mg/kg/injection, schedule: Q01DX001 (ip), vehicle: saline with Tween-80 97 % of control | dose: 200.0 mg/kg/injection, schedule: Q01DX001 (ip), vehicle: saline with Tween-80 96 % of control | dose: 400.0 mg/kg/injection, schedule: Q01DX001 (ip), vehicle: saline with Tween-80 100 % of control

COc1cc(C(=O)NC(=S)Nc2ccc3ccccc3c2)cc(OC)c1OC
inactive: dose: 100.0 mg/kg/injection, schedule: Q04DX002 (ip), vehicle: saline with Tween-80 91 % of control | dose: 200.0 mg/kg/injection, schedule: Q04DX002 (ip), vehicle: saline with Tween-80 97 % of control | dose: 400.0 mg/kg/injection, schedule: Q04DX002 (ip), vehicle: saline with Tween-80 91 % of control

CNCC(SC)c1ccc(O)c(O)c1 (configuration not stated)
inactive: dose: 50.0 mg/kg/injection, schedule: Q01DX009 (ip), vehicle: saline 103 % of control | dose: 100.0 mg/kg/injection, schedule: Q01DX009 (ip), vehicle: saline 103 % of control | [8] 114 % of control | dose: 200.0 mg/kg/injection, schedule: Q01DX009 (ip), vehicle: saline 121 % of control | [9] 114 % of control

O=C(O)CCSCCC(=O)O
inactive: dose: 75.0 mg/kg/injection, schedule: Q01DX009 (ip), vehicle: Klucel (hydroxypropylcellulose) (HPC) 92 % of control | dose: 75.0 mg/kg/injection, schedule: Q04DX003 (ip), vehicle: saline 100 % of control | dose: 150.0 mg/kg/injection, schedule: Q01DX009 (ip), vehicle: Klucel (hydroxypropylcellulose) (HPC) 92 % of control | dose: 150.0 mg/kg/injection, schedule: Q04DX003 (ip), vehicle: saline 100 % of control | dose: 300.0 mg/kg/injection, schedule: Q01DX009 (ip), vehicle: Klucel (hydroxypropylcellulose) (HPC) 94 % of control | dose: 300.0 mg/kg/injection, schedule: Q04DX003 (ip), vehicle: saline 102 % of control

Nc1nccc(Cl)n1
inactive: dose: 12.5 mg/kg/injection, schedule: Q01DX009 (ip), vehicle: saline with Tween-80 89 % of control | dose: 25.0 mg/kg/injection, schedule: Q01DX009 (ip), vehicle: saline with Tween-80 92 % of control | [10] 92 % of control

[Cl][Tl]
inactive: [5] 94 % of control | [8] 106 % of control | [6] 101 % of control | [9] 90 % of control | [7] 94 % of control

S=C(S)N1CCOCC1.[Cu+2]
inactive: dose: 50.0 mg/kg/injection, schedule: Q01DX001 (ip), vehicle: carboxymethylcellulose (CMC) 88 % of control | [11] 107 % of control

C/C=C\c1ccc(OC(=O)NC)c(OC)c1
inactive: [11] 99 % of control | dose: 100.0 mg/kg/injection, schedule: Q01DX009 (ip), vehicle: carboxymethylcellulose (CMC) 97 % of control and 104 % of control | dose: 100.0 mg/kg/injection, schedule: Q04DX002 (ip), vehicle: Klucel (hydroxypropylcellulose) (HPC) 100 % of control | dose: 100.0 mg/kg/injection, schedule: Q04DX002 (ip), vehicle: carboxymethylcellulose (CMC) 98 % of control and 104 % of control | dose: 100.0 mg/kg/injection, schedule: Q04DX003 (ip), vehicle: carboxymethylcellulose (CMC) 96 % of control | dose: 200.0 mg/kg/injection, schedule: Q01DX001 (ip), vehicle: carboxymethylcellulose (CMC) 100 % of control | dose: 200.0 mg/kg/injection, schedule: Q01DX009 (ip), vehicle: carboxymethylcellulose (CMC) 103 % of control and 104 % of control | dose: 200.0 mg/kg/injection, schedule: Q04DX002 (ip), vehicle: Klucel (hydroxypropylcellulose) (HPC) 103 % of control | dose: 200.0 mg/kg/injection, schedule: Q04DX002 (ip), vehicle: carboxymethylcellulose (CMC) 98 % of control and 108 % of control | dose: 200.0 mg/kg/injection, schedule: Q04DX003 (ip), vehicle: carboxymethylcellulose (CMC) 93 % of control | dose: 400.0 mg/kg/injection, schedule: Q01DX001 (ip), vehicle: carboxymethylcellulose (CMC) 99 % of control | dose: 400.0 mg/kg/injection, schedule: Q01DX009 (ip), vehicle: carboxymethylcellulose (CMC) 100 % of control and 101 % of control | dose: 400.0 mg/kg/injection, schedule: Q04DX002 (ip), vehicle: Klucel (hydroxypropylcellulose) (HPC) 103 % of control | dose: 400.0 mg/kg/injection, schedule: Q04DX002 (ip), vehicle: carboxymethylcellulose (CMC) 93 % of control and 98 % of control | dose: 400.0 mg/kg/injection, schedule: Q04DX003 (ip), vehicle: carboxymethylcellulose (CMC) 93 % of control

Cc1ccccc1NC(=O)NCCBr
inactive: [10] 95 % of control | [4] 95 % of control

COc1ccc(S(=O)(=O)F)cc1NC(=O)CCc1ccc(N2C(N)=NC(N)=NC2(C)C)cc1
inactive: dose: 100.0 mg/kg/injection, schedule: Q01DX001 (ip), vehicle: gum acacia 115 % of control | dose: 200.0 mg/kg/injection, schedule: Q01DX001 (ip), vehicle: gum acacia 101 % of control

CCCCCCC(O)CCCCCCCCCCCO (configuration not stated)
inactive: [1] 108 % of control | [2] 97 % of control | [3] 103 % of control
